For 11 compounds, inhibition and IC50 results are on record in patent publication US20240343710A1, “HETEROCYCLIC COMPOUNDS AND METHODS OF USE THEREOF” (1cBio, Inc., priority 2023, published 2024).

Assay [1] has as its system DLD-1 wild-type colorectal adenocarcinoma cells. In words: Cell viability assay (Cell Titer-Glo, 7 days), DLD-1 wild-type. As to conditions: Homo sapiens, 168 h, DLD-1 wild-type cells, read-out: DLD-1 wild-type % inh at 10 μM. In kind it is cell-based. The text has this:
(§1) In some embodiments, the biological assay measures the effects that compounds of the present disclosure may have on the viability of cells, e.g., the viability of cancer cells. In some embodiments, DLD-1 wild-type and DLD-1 BRCA2(−/−) colorectal adenocarcinoma cells, an isogenic pair of cell lines differing in the presence and absence, respectively, of both BRCA2 alleles, are used to measure the effect of the disclosed compounds on the viability of cancer cells. In some embodiments, the cells are harvested during the logarithmic growth period, counted, and seeded at a specified count in the wells of a 96- or 384-well cell culture plate. In some embodiments, after seeding, the cells are incubated, e.g., at 37° C., 5% CO2 overnight. In some embodiments, the cells are treated with compounds, e.g., with serially diluted test compounds at 8-11 concentrations within a desired concentration range, e.g., from 1 nM-10 μM, for the generation of dose-response curves. In some embodiments, the plate is further incubated, e.g., for another 3-7 days in a humidified incubator at 37° C. and 5% CO2. In some embodiments, cell viability is assessed by luminescence measurement after addition of Cell Titer-Glo reagent (Promega, Madison, Wis.) according to the manufacturer's instructions. In some embodiments, cell viability IC50 values are calculated using XLFit, equation 201: y=A+((B−A)/(1+((x/C)^D))), where A=bottom, B=top, C=IC50, and D=slope. In some embodiments, the effects of the test compounds on the viability of other cell lines such as MDA-MB-436, MDA-MB-231, SUM149PT, HCC1395, and UWB1.289 are determined in an analogous method.
(§2) Compounds of the present disclosure were tested for their effects on the viability of cancer cells. DLD-1 wild-type and DLD-1 BRCA2(−/−) colorectal adenocarcinoma cells, an isogenic pair of cell lines differing in the presence and absence, respectively, of both BRCA2 alleles, were used. The cells were harvested during the logarithmic growth period, counted, and seeded at 50 cells/well for DLD-1 wild-type and 200 cells/well for DLD-1 BRCA2(−/−) in a 384-well cell culture plate. After seeding, cells were incubated at 37° C., 5% CO2 overnight. Cells were treated with serially diluted test compounds at 10 concentrations (e.g., from 1.5 nM-30 μM) for generation of dose response curves, or at a single concentration. The plate was further incubated for another 7 days in a humidified incubator at 37° C. and 5% CO2. Cell viability was assessed by luminescence measurement after addition of Cell Titer-Glo reagent (Promega, Madison, Wis.) according to the manufacturer's instructions. Cell viability IC50 values were calculated using XLFit, equation 201. y=A+((B−A)/(1+((x/C)^D))), where A=bottom, B=top, C=IC50, and D=slope. IC50 values are shown in Table B and are presented in ranges, in which “+++”<300 nM, 300 nM≤“++”<3000 nM, and “+”≥3000 nM. Values for percent inhibition at 10 μM are also shown in Table B and are presented in ranges, in which “***”≥67%, 33%: “**”≤67%, and “*”<33%. Effects of the test compounds on the viability of other cell lines such as MDA-MB-436, MDA-MB-231, SUM149PT, HCC1395, and UWB1.289 are determined in an analogous method.
For orientation: ATP-based viability assays read luminescence as a measure of living cells.

In a further assay the target is recombinant human PARP1 (Homo sapiens, UniProt P09874). The experiment in a line: PARP1 fluorescence polarization binding assay. As to conditions: GST-tagged PARP1 20 nM, PARP1-FL probe 3 nM. The protocol: In some embodiments, the biological assay is described in the Examples herein. In some embodiments, the biological assay measures PARP-1 binding by way of fluorescence polarization measurements. In some embodiments, binding of a test compound to recombinant human PARP-1 reduces the amount of binding of a fluorescent probe, and consequently reduces the detected level of fluorescence polarization. In some test compound stock solutions are prepared in a solvent, e.g., DMSO, and are serially diluted into a range of concentrations, e.g., 15 concentrations, 14 concentrations, 13 concentrations, 12 concentrations, 11 concentrations, 10 concentrations, 9 concentrations, 8 concentrations, 7 concentrations, 6 concentrations, or 5 concentrations, by a dilution factor, e.g., a 10-fold dilution factor, a 9-fold dilution factor, an 8-fold dilution factor, a 7-fold dilution factor, a 6-fold dilution factor, a 5-fold dilution factor, a 4-fold dilution factor, a 3-fold dilution factor, or a 2-fold dilution factor. In some embodiments, the serial dilutions, e.g., 100 nL of serial dilution, 90 nL of serial dilution, 80 nL of serial dilution, 70 nL of serial dilution, 60 nL of serial dilution, 50 nL of serial dilution, 30 nL of serial dilution, 20 nL of serial dilution, or 10 nL of serial dilution, are added to a multi-welled plate, e.g., a 1536-well plate, a 384-well plate, or a 96-well plate. In some embodiments, PARP-1, e.g., GST-tagged PARP-1, is diluted in assay buffer, e.g., 50 μL of assay buffer, 40 μL of assay buffer, e.g., 30 μL of assay buffer, 20 μL of assay buffer, 10 μL of assay buffer, or 5 μL of assay buffer, and is added to the plate. In some embodiments, the plate is centrifuged, e.g., at 1000 rpm for 1 min, and incubated, e.g., incubated for 30 minutes at room temperature (RT). In some embodiments, a fluorescent probe, e.g., 10 μL of 6 nM PARP1-FL (TOCRIS, Cat #6461), is diluted in an assay buffer and is added to the plate. In some embodiments, the final concentrations of PARP-1 and fluorescent probe are 20 nM and 3 nM, respectively, in a total volume of 20 μL. In some embodiments, the plate is centrifuged, e.g., at 1000 rpm for 1 minute, and the assay plate is incubated, e.g., for 4 h at RT. In some embodiments, the samples in each well are read using a plate reader, e.g., an Envision instrument using excitation=480 nm, and emission wavelength=FITC FP-P pol 535 nm & FITC FP-S pol 535 nm). In some embodiments, percent inhibition is calculated from mP values using Inhibition (%)=[1−(mPc−mPL)/(mPH−mPL)]×100%, where mPc, mPL, and mPH are the mP values of test compound, Low controls, and High controls, respectively. In some embodiments, binding IC50 values are calculated using XLFit (equation 201: y=A+((B−A)/(1+((x/C)^D))), where A=bottom, B=top, C=IC50, and D=slope) with a floating top and bottom for curves.
Compounds of the present disclosure were tested in a PARP1 fluorescence polarization binding assay at Pharmaron (Beijing, P.R. China). In this biochemical assay, binding of test compound to recombinant human PARP1 reduces the amount of binding of a fluorescent probe, and consequently reduces the detected level of fluorescence polarization. Test compound stock solutions were prepared in DMSO and then serially diluted into 10 concentrations by 3-fold dilution in a 384-well plate using a TECAN EVO200. Alternatively, a single concentration was prepared. 60 nL of each dilution was transferred to the plate using an Echo550 (Labcyte), and then 10 μL 40 nM GST-tagged PARP1 (BPS Bioscience, Cat #80501), diluted in assay buffer (50 mM Tris pH 8.0, 0.001% Triton X-100, 10 mM MgCl2, 150 mM NaCl), was added to the plate. After a centrifugation at 1000 rpm for 1 min, the assay plate was incubated for 30 min at RT. 10 μL 6 nM PARP1-FL (TOCRIS, Cat #6461), diluted using assay buffer, was then added to the plate. The final concentrations of PARP1 and PARP1-FL were 20 nM and 3 nM, respectively, in a total volume of 20 μL. […]

Assay [2] relates to DLD-1 BRCA2(−/−) colorectal adenocarcinoma cells. In words: Cell viability assay (Cell Titer-Glo, 7 days), DLD-1 BRCA2(−/−). As to conditions: Homo sapiens, 168 h, DLD-1 BRCA2(−/−) cells. In kind it is cell-based.
From the text: as §1, §2

Another assay concerns the target recombinant human PARP2 (Homo sapiens, UniProt Q9UGN5). In words: PARP2 fluorescence polarization binding assay. Conditions: read-out: PARP2 % inh at 10 μM. A general note: In fluorescence polarisation assays a small probe gives low polarisation when free and higher when bound to something large.
The mark [3] stands for this setting: percent inhibition at 10 μM, fluorescence polarization, GST-tagged PARP2 20 nM, PARP1-FL probe 3 nM.

pIC50: −log10 of the molar value. Counter-ions that a name gives are not always drawn. Like-named read-outs stand apart in the source and are kept apart here.

Chain of recombinant human PARP1 (P09874 whole entry): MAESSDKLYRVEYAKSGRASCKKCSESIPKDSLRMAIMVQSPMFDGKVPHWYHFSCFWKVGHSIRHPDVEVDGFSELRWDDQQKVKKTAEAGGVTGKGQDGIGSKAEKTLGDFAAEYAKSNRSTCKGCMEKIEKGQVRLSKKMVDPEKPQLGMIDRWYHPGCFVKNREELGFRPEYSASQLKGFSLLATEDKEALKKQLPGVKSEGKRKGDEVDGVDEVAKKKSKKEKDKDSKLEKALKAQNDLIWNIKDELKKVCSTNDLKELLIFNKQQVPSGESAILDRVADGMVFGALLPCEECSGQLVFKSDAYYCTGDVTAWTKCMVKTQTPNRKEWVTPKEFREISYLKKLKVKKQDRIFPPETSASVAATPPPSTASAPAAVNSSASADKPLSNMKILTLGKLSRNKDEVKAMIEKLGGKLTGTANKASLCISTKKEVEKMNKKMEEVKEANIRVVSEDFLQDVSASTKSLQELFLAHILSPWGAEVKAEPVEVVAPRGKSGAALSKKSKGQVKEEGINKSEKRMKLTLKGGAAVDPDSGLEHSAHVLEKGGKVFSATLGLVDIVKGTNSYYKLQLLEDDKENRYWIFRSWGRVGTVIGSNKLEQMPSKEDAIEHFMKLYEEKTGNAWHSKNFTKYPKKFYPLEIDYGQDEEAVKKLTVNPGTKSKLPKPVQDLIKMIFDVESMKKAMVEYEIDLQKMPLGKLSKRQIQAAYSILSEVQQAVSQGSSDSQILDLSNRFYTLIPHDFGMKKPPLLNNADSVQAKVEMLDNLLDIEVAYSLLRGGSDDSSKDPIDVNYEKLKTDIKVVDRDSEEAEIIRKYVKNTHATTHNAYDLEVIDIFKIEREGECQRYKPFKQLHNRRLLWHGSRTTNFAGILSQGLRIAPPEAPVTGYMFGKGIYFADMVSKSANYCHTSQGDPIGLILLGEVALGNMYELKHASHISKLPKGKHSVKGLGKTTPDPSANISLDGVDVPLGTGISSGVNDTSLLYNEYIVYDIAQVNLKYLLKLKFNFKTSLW
Chain of recombinant human PARP2 (Q9UGN5 whole entry): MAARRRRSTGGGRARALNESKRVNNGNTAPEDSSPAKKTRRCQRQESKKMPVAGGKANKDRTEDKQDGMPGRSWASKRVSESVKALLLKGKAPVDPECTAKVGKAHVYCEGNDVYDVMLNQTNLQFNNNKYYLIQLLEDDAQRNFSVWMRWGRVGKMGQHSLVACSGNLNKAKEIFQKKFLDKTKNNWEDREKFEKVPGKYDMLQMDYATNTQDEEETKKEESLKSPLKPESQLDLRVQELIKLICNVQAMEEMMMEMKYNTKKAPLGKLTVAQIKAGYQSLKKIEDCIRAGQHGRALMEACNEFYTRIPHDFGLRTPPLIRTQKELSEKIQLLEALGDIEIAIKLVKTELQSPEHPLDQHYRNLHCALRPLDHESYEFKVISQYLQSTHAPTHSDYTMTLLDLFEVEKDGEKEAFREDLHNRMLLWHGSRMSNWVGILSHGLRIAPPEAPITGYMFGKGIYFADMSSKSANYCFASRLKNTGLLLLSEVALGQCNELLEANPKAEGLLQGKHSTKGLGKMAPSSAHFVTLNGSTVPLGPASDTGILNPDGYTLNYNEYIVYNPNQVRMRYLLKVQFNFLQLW

Usually pIC50 stands for the IC50 on a negative log10 scale, so that one unit is a factor of ten. For `CCNC(=O)Nc1cc(CN2CCN(c3ccc(C(=O)NC)c(=O)n3C)CC2)ccn1` [Compound 30, 6-(4-((2-(3-ethylureido)pyridin-4-yl)methyl)piperazin-1-yl)-N,1-dimethyl-2-oxo-1,2-dihydropyridine-3-carboxamide], the inhibition at 10 µM (in assay [1]; at recombinant human PARP2 (setting [3])) was less than 33% each time. Moreover, the pIC50 at recombinant human PARP1 is more than 7.00; in assay [2], 5.52 to 6.52.
Take `CCNC(=O)Nc1cc(CN2CCN(c3ccc(C(=O)NC)cc3F)CC2)ccn1` [Compound 31, 4-(4-((2-(3-ethylureido)pyridin-4-yl)methyl)piperazin-1-yl)-3-fluoro-N-methylbenzamide]: the inhibition at 10 µM (in assay [1]; at recombinant human PARP2 (setting [3])) was less than 33% each time. Besides, the pIC50 at recombinant human PARP1 is more than 7.00; in assay [2], 5.52 to 6.52.
As to `CNC(=O)Nc1cc(CN2CCN(c3ccc(C(=O)NC)nc3C)CC2)ccn1` [Compound 42, N,6-dimethyl-5-(4-((2-(3-methylureido)pyridin-4-yl)methyl)piperazin-1-yl)picolinamide trifluoroacetate], the inhibition at 10 µM (in assay [1]; on recombinant human PARP2) was less than 33% throughout. Also, the pIC50 is more than 7.00 on recombinant human PARP1 and more than 6.52 in assay [2].
Turning to `CNC(=O)c1ccc(N2CCN(Cc3ccnc(NC(=O)NC4CC4)c3)CC2)c(C)n1` [Compound 46, 5-(4-((2-(3-cyclopropylureido)pyridin-4-yl)methyl)piperazin-1-yl)-N,6-dimethylpicolinamide], the inhibition at 10 µM (in assay [1]; on recombinant human PARP2 (setting [3])) was less than 33% each time. The results for the pIC50 (on recombinant human PARP1; in assay [2]) were more than 7.00 and more than 6.52, respectively.
As to `CNC(=O)c1ccc(N2CCN(Cc3ccnc(NC(=O)NCC(F)(F)F)c3)CC2)c(C)n1` [Compound 50, N,6-dimethyl-5-(4-((2-(3-(2,2,2-trifluoroethyl)ureido)pyridin-4-yl)methyl)piperazin-1-y) picolinamide trifluoroacetate], the inhibition at 10 µM (in assay [1]; at recombinant human PARP2 (setting [3])) was less than 33% in each case. The pIC50 is more than 7.00 at recombinant human PARP1 and more than 6.52 in assay [2].
For `CCNC(=O)Nc1cc(CN2CCN(c3ccc(C(=O)NC)nc3C)CC2)c(C)cn1` [Compound 70, 5-(4-((2-(3-ethylureido)-5-methylpyridin-4-yl)methyl)piperazin-1-yl)-N,6-dimethylpicolinamide formate], the inhibition at 10 µM (in assay [1]; at recombinant human PARP2) was less than 33% in each case. The pIC50 at recombinant human PARP1 is more than 7.00; in assay [2] it was more than 6.52.
Take `CCNC(=O)Nc1nccc(CN2CCN(c3ccc(C(=O)NC)nc3F)CC2)c1F` [Compound 81, 5-(4-((2-(3-ethylureido)-3-fluoropyridin-4-yl)methyl)piperazin-1-yl)-6-fluoro-N-methylpicolinamide]: the inhibition at 10 µM (in assay [1]; at recombinant human PARP2 (setting [3])) was less than 33% throughout. In addition, the values for the pIC50 (at recombinant human PARP1; in assay [2]) were more than 7.00 and more than 6.52, respectively.
For `CCNC(=O)Nc1nccc(CN2CCN(c3ccc(C(=O)NC)nc3C)CC2)c1F` [Compound 82, 5-(4-((2-(3-ethylureido)-3-fluoropyridin-4-yl)methyl)piperazin-1-yl)-N,6-dimethylpicolinamide], the inhibition at 10 µM (in assay [1]; at recombinant human PARP2 (setting [3])) was less than 33% each time. Also, the pIC50 on recombinant human PARP1 is more than 7.00; in assay [2], more than 6.52.
Turning to `CCCC(=O)Nc1cc(CN2CCN(c3ccc(C(=O)NC)nc3C)CC2)ccn1` [Compound 161, 5-(4-((2-butyramidopyridin-4-yl)methyl)piperazin-1-y)-N,6-dimethylpicolinamide], the inhibition at 10 µM (in assay [1]; at recombinant human PARP2 (setting [3])) was less than 33% in each case. The pIC50 is 5.52 to 7.00 at recombinant human PARP1 and 5.52 to 6.52 in assay [2].
As for `CCNC(=O)Nc1cccc(CN2CCN(c3ccc(C(=O)NC)nc3C)CC2)c1` [Compound 202, 5-(4-(3-(3-ethylureido)benzyl)piperazin-1-yl)-N,6-dimethyl picolinamide formate], the inhibition at 10 µM (in assay [1]; on recombinant human PARP2 (setting [3])) was less than 33% in each case. Also, the values for the negative logarithm of the IC50 (pIC50) (on recombinant human PARP1; in assay [2]) were 5.52 to 7.00 and not above 5.52, respectively.
As to `CCNC(=O)Nc1cc(CN2CCN(c3ccc(C(=O)NC)nc3F)CC2)ncn1` [Compound 229, 5-(4-((6-(3-ethylureido)pyrimidin-4-yl)methyl)piperazin-1-yl)-6-fluoro-N-methylpicolinamide formate], the inhibition at 10 µM (in assay [1]; on recombinant human PARP2) was less than 33% in each case. The figures for the pIC50 (on recombinant human PARP1; in assay [2]) were more than 7.00 and more than 6.52, respectively.
